# Source: article PMC8235214, “Purification, Identification, Activity Evaluation, and Stability of Antioxidant Peptides from Alcalase Hydrolysate of Antarctic Krill (Euphausia superba) Proteins” (Marine Drugs, 2021)
# Where two headings read alike, the source gives them in different places. Ends that are not written are not given here. Peptide text beside a SMILES is read from it.
# What was measured:
# [1] = Simulated GI digestion stability (pepsin then pancreatin, DPPH· scavenging read-out); assay type: in vitro ADME; conditions: peptide 1.0 mg/mL; two-stage model, pepsin 120 min then pancreatin 60 min (0 to 180 min); mean ± SD, n = 3
# Protocol: The influence of simulate GI digestion on the stability of ESP6, ESP7, and ESP8 was evaluated by the two-stage digestion model. In short, ESP6, ESP7, and ESP8 were separately treated with pepsin for 120 min and pancreatin for 60 min.
# The DPPH· scavenging ratio (%) of ESP6, ESP7, and ESP8 at 1.0 mg/mL were measured at the set time to analyze their stability.
# [2] = cited from earlier work; for Stability under thermal and pH treatments (HO· scavenging activity): high temperature (>60 °C) and strong acid and alkali conditions; for Stability under thermal and pH treatments: 25–100 °C or pH 3–11 treatments
# Description: The pH and thermal stability of antioxidant peptides are key properties for their applications in food and health products, and tolerance property on simulated GI digestion treatments can help to assess the rate of metabolism and timeliness of antioxidant peptides in vivo [25, 52, 68, 69].
# [3] = parameters: method as in 6 sources, ref 36 = [36]; PMID 23411302; doi:10.1016/j.foodchem.2012.12.002; 36. Wang B. Li L. Chi C.F. Ma J.H. Luo H.Y. Xu Y.F. Purification and Characterization of a novel antioxidant peptide derived from blue mussel ( Mytilus edulis ) protein hydrolysate Food Chem. 2013 138 ||| ref 45 = [45]; doi:10.1016/j.foodres.2010.02.009; 45. You L. Zhao M. Regenstein J.M. Ren J. Purification and identification of antioxidative peptides from loach ( Misgurnus anguillicaudatus ) protein hydrolysate by consecutive chromatography and elec ||| ref 46 = [46]; PMID 22652579; doi:10.1016/j.peptides.2012.05.013; 46. Wang B. Li Z.R. Chi C.F. Zhang Q.H. Luo H.Y. Preparation and evaluation of antioxidant peptides from ethanol-soluble proteins hydrolysate of Sphyrna lewini muscle Peptides 2012 36 240 250 10.1016/ ||| ref 49 = [49]; PMID 31058809; doi:10.3390/md17050263; 49. Pan X.Y. Wang Y.M. Li L. Chi C.F. Wang B. Four antioxidant peptides from protein hydrolysate of red stingray ( Dasyatis akajei ) cartilages: Isolation, identification, and in vitro activity evalua ||| ref 22 = [22]; PMID 32164197; doi:10.3390/md18030153; 22. Hu X.M. Wang Y.M. Zhao Y.Q. Chi C.F. Wang B. Antioxidant peptides from the protein hydrolysate of monkfish ( Lophius litulon ) muscle: Purification, identification, and cytoprotective function on ||| ...; conditions: cited from earlier work
# [4] = cited from earlier work
# Description: In the organism, HO· can oxidize and damage most of the macromolecules due to its high reactivity characteristic. Therefore, looking for natural antioxidant peptides with high HO· scavenging ability is key for discovering new antioxidants. […] In addition, EC50 values of ESP6, ESP7, and ESP8 were also lower ...
# [5] = cited from earlier work; remark: listed apart in the source
# Description: However, no significant difference was found among the EC50 values of ESP6, ESP7, and ESP8 (p > 0.05).
# [6] = peptides from giant squid protein
# [7] = peptides from Raja porosa cartilage
# [8] = peptides from miiuy croaker swim bladders
# [9] = peptides from Mytilus edulis and scales of croceine croaker
# [10] = peptides from skipjack tuna heads
# [11] = peptides from swim bladders of miiuy croaker
# [12] = peptides from red stingray cartilages
# [13] = peptides from Sphyrna lewini muscle
compound,measurement,setting,value
"CC(C)C[C@H](NC(=O)[C@@H](N)CO)C(=O)N1CCC[C@H]1C(=O)N[C@@H](Cc1ccc(O)cc1)C(=O)O [ESP6, Ser-Leu-Pro-Tyr] (H-SLPY-OH)",Decrease of DPPH· scavenging ratio by simulated GI digestion,[1],6.41 ± 0.96%
"CSCC[C@H](NC(=O)[C@@H]1CCCN1C(=O)[C@@H]1CCCN1C(=O)[C@H](Cc1ccc(O)cc1)NC(=O)[C@@H](N)CCC(N)=O)C(=O)N[C@@H](CCC(N)=O)C(=O)N[C@@H](Cc1ccc(O)cc1)C(=O)O [ESP7, Gln-Tyr-Pro-Pro-Met-Gln-Tyr] (H-QYPPMQY-OH)",Decrease of DPPH· scavenging ratio by simulated GI digestion,[1],8.36 ± 0.59%
"C[C@H](NC(=O)[C@H](CCC(=O)O)NC(=O)[C@H](Cc1ccc(O)cc1)NC(=O)[C@@H](N)CCC(=O)O)C(=O)O [ESP8, Glu-Tyr-Glu-Ala] (H-EYEA-OH)",Decrease of DPPH· scavenging ratio by simulated GI digestion,[1],6.48 ± 1.03%
ATSHH,Stability under thermal and pH treatments (DPPH· scavenging activity),[2]; 50–90 °C and strong acids and bases,will decrease its partial DPPH· scavenging activity
"EDIVCW [EDIVCW, antioxidant peptide from monkfish muscle]",EC50 on DPPH·,[3]; peptides from monkfish muscle,390 µg/mL
"FDSGPAGVL [FDSGPAGVL, antioxidant peptide from giant squid protein]",EC50 on HO·,[4]; [6],78 µg/mL
"FIMGPY [FIMGPY, antioxidant peptide from Raja porosa cartilage]",EC50 on O2−·,[5]; [7],1610 µg/mL
"FPYLRH [FPYLRH, antioxidant peptide from miiuy croaker swim bladders]",EC50 on DPPH·,[3]; [8],510 ± 30 µg/mL
same,EC50 on HO·,[4]; [8],680 ± 50 µg/mL
"GPAGDY [GPAGDY, antioxidant peptide from Raja porosa cartilage]",EC50 on O2−·,[5]; [7],1660 µg/mL
"GPAGPAG [GPAGPAG, antioxidant peptide from scales of croceine croaker]",EC50 on DPPH·,[3]; [9],675 µg/mL
"Glu-Met-Gly-Pro-Ala [EMGPA, antioxidant peptide from skipjack tuna heads]",Stability under thermal and pH treatments (HO· scavenging activity),[2],significantly influenced
same,EC50 on O2−·,[5]; [10],710 µg/mL
"Gly-Ile-Glu-Trp-Ala [GIEWA, antioxidant peptide from miiuy croaker swim bladders]",EC50 on DPPH·,[3]; [8],780 ± 50 µg/mL
"Gly-Phe-Pro-Ser-Gly [GFPSG, antioxidant peptide from scales of croceine croaker]",EC50 on DPPH·,[3]; [9],283 µg/mL
"Gly-Phe-Tyr-Ala-Ala [GFYAA, antioxidant peptide from miiuy croaker swim bladders]",EC50 on HO·,[4]; [8],2350 ± 220 µg/mL
same,EC50 on O2−·,[5]; [11],3030 ± 190 µg/mL
"IVAGPQ [IVAGPQ, antioxidant peptide from skate (Raja porosa) cartilages]",EC50 on HO·,[4]; peptide from skate cartilages,5030 µg/mL
same,EC50 on O2−·,[5]; [7],1820 µg/mL
"Ile-Glu-Glu-Glu-Gln [IEEEQ, antioxidant peptide from red stingray cartilages]",EC50 on DPPH·,[3]; [12],4010 µg/mL
"Leu-Glu-Glu-Glu-Glu [LEEEE, antioxidant peptide from red stingray cartilages]",EC50 on DPPH·,[3]; [12],3690 µg/mL
MYPGLA,Stability under thermal and pH treatments,[2],high stability
"Met-Glu-Pro-Val-Trp [MEPVW, antioxidant peptide from monkfish muscle]",EC50 on DPPH·,[3]; peptides from monkfish muscle,620 µg/mL
same,EC50 on O2−·,[5]; peptide from monkfish muscle,940 µg/mL
"Met-Ile-Leu-Met-Arg [MILMR, antioxidant peptide from croceine croaker muscle]",EC50 on O2−·,[5]; peptide from croceine croaker muscle,993 µg/mL
"NGPLQAGQPGER [NGPLQAGQPGER, antioxidant peptide from giant squid protein]",EC50 on HO·,[4]; [6],123 µg/mL
"Phe-Ser-Gly-Leu-Arg [FSGLR, antioxidant peptide from miiuy croaker swim bladders]",EC50 on HO·,[4]; [8],2450 ± 250 µg/mL
same,EC50 on O2−·,[5]; [11],3350 ± 200 µg/mL
"Phe-Thr-Gly-Met-Asp [FTGMD, antioxidant peptide from miiuy croaker swim bladders]",EC50 on HO·,[4]; [8],2310 ± 120 µg/mL
same,EC50 on O2−·,[5]; [11],3040 ± 270 µg/mL
"Pro-Ser-Tyr-Val [PSYV, antioxidant peptide from weatherfish loach]",EC50 on DPPH·,[3]; peptide from weather loach,17000 µg/mL
same,EC50 on HO·,[4]; peptide from weatherfish loach,2640 µg/mL
"Pro-Tyr-Phe-Asn-Lys [PYFNK, antioxidant peptide from Sphyrna lewini muscle]",EC50 on DPPH·,[3]; [13],4110 µg/mL
same,EC50 on HO·,[4]; [13],240 µg/mL
same,EC50 on O2−·,[5]; [13],110 µg/mL
"Trp-Asp-Arg [WDR, antioxidant peptide from Sphyrna lewini muscle]",EC50 on DPPH·,[3]; [13],3630 µg/mL
same,EC50 on HO·,[4]; [13],150 µg/mL
same,EC50 on O2−·,[5]; [13],90 µg/mL
"Trp-Glu-Gly-Pro-Lys [WEGPK, antioxidant peptide from heads of bluefin leatherjacket]",EC50 on HO·,[4]; peptide from heads of bluefin leatherjacket,5567 µg/mL
"Trp-Met-Gly-Pro-Tyr [WMGPY, antioxidant peptide from skipjack tuna heads]",Stability under thermal and pH treatments (HO· scavenging activity),[2],significantly influenced
same,EC50 on O2−·,[5]; [10],380 µg/mL
"Trp-Met-Phe-Asp-Trp [WMFDW, antioxidant peptide from skipjack tuna heads]",Stability under thermal and pH treatments (HO· scavenging activity),[2],significantly influenced
same,EC50 on O2−·,[5]; [10],560 µg/mL
"Tyr-Leu-Pro-Tyr-Ala [YLPYA, antioxidant peptide from swim bladders of miiuy croaker]",EC50 on O2−·,[5]; [11],3610 ± 250 µg/mL
"Tyr-Phe-Leu-Trp-Pro [YFLWP, antioxidant peptide from miiuy croaker muscle]",EC50 on O2−·,[5]; peptide from miiuy croaker muscle,3080 µg/mL
"Tyr-Pro-Pro-Ala-Lys [YPPAK, antioxidant peptide from blue mussel (Mytilus edulis)]",EC50 on DPPH·,[3]; [9],2620 µg/mL
same,EC50 on HO·,[4]; peptide from blue mussel,228 µg/mL
same,EC50 on O2−·,[5]; peptide from blue mussel,72 µg/mL
"Tyr-Trp-Asp-Ala-Trp [YWDAW, antioxidant peptide from monkfish muscle]",EC50 on DPPH·,[3]; peptides from monkfish muscle,510 µg/mL
VPDDD [antioxidant peptide from swim bladders of miiuy croaker],EC50 on O2−·,[5]; [11],4110 ± 310 µg/mL
Val-Pro-Arg [VPR],EC50 on DPPH·,[3]; [12],4610 µg/mL
"Val-Pro-Asp-Asp [VPDD, antioxidant peptide from miiuy croaker swim bladders]",EC50 on HO·,[4]; [8],2850 ± 190 µg/mL
WAFAPA,Stability under thermal and pH treatments,[2],high stability
